Experimental findings from PubChem BioAssay (NCI) are described below.

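Dose response: 5 concentrations. Exposure: 48 h. Format: 96-well plates. Endpoint: linear interpolation; highest concentration if not reached. The concentration for 50% growth inhibition is given as GI50. TGI is the concentration that stops growth completely.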

Some test systems named below: OVCAR-8 ovarian; NCI/ADR-RES ovarian; HOP-92 NSCLC; UACC-62 melanoma; SNB-75 CNS; K-562 leukemia; UACC-257 melanoma; SW-620 colon; M14 melanoma; T-47D breast.
Test in all cases: NCI tumour cell line growth inhibition, 48 h

Take `Cc1ccc(CNc2ccc(Cl)cc2NCc2ccc(C)c(O)c2)cc1O`: the GI50 is 8.66 µM with OVCAR-8 ovarian; 8.3 µM with NCI/ADR-RES ovarian; 6.91 µM with HOP-92 NSCLC; 7.55 µM in the test on UACC-62 melanoma; 5.47 µM in the test with SNB-75 CNS; 5.98 µM in the test on K-562 leukemia. For the same compound, the GI50 with UACC-257 melanoma is 8.12 µM; in the test on SW-620 colon, 8.22 µM; in the test on M14 melanoma it was 5.78 µM; in the test with T-47D breast, 7.4 µM. For the same compound, the TGI with OVCAR-8 ovarian is 18.4 µM; in the test on NCI/ADR-RES ovarian, 17.8 µM; in the test with HOP-92 NSCLC, 14.2 µM; with UACC-62 melanoma it was 14.5 µM; with SNB-75 CNS, 12.1 µM; in the test on K-562 leukemia, 18 µM. In addition, the TGI with UACC-257 melanoma stood at 15.6 µM; with SW-620 colon it was 16.8 µM; in the test on M14 melanoma, 12.6 µM; in the test on T-47D breast, 20.1 µM.
Take `CC/C(=C\c1ccc(N(C)C)cc1)c1ccncc1`: the GI50 is 6.16 µM with OVCAR-8 ovarian; 2.38 µM in the test with NCI/ADR-RES ovarian; 1.89 µM with HOP-92 NSCLC; 5.04 µM in the test with UACC-62 melanoma; 6.88 µM in the test with SNB-75 CNS; 3.78 µM in the test on K-562 leukemia. The GI50 with UACC-257 melanoma was 11.6 µM; in the test with SW-620 colon, 4.04 µM; in the test on M14 melanoma, 4.37 µM; in the test with T-47D breast, 4.16 µM. Moreover, the TGI with OVCAR-8 ovarian was over 100 µM; with NCI/ADR-RES ovarian it was 6.09 µM; in the test on HOP-92 NSCLC it was 9.94 µM; in the test with UACC-62 melanoma, over 100 µM; in the test with SNB-75 CNS it was 47.7 µM; in the test on K-562 leukemia, over 100 µM. In addition, the TGI with UACC-257 melanoma is over 100 µM; in the test with SW-620 colon, over 100 µM; with M14 melanoma, 54.6 µM; with T-47D breast, over 100 µM.
Consider `O=C(c1ccco1)c1c(C(F)(F)F)n([O-])c2cc(Cl)c(Cl)cc2[n+]1=O`, for which the GI50 in the test with OVCAR-8 ovarian is 1.03 µM; in the test on NCI/ADR-RES ovarian, 0.845 µM; in the test on HOP-92 NSCLC it was 0.851 µM; with UACC-62 melanoma, 0.705 µM; in the test with SNB-75 CNS it was 6.16 µM; in the test with K-562 leukemia, 0.173 µM. Further, the GI50 with UACC-257 melanoma is 0.761 µM; with SW-620 colon it was 0.873 µM; in the test with M14 melanoma, 0.715 µM; in the test with T-47D breast, 7.03 µM. In addition, the TGI with OVCAR-8 ovarian turned out to be 6.6 µM; with NCI/ADR-RES ovarian, 1.78 µM; in the test on HOP-92 NSCLC it was 2.15 µM; with UACC-62 melanoma it was 1.49 µM; in the test on SNB-75 CNS it was 13.6 µM; in the test on K-562 leukemia, 2.87 µM. Further, the TGI was 2.15 µM in the test with UACC-257 melanoma, 2.48 µM in the test with SW-620 colon, 1.46 µM in the test with M14 melanoma and 15.3 µM in the test with T-47D breast.
On to `O=C(CNC(=O)c1cccc2ccccc12)Nc1ccccc1Oc1ccc(O)cc1`, for which the GI50 in the test with OVCAR-8 ovarian is 1.31 µM; with NCI/ADR-RES ovarian it was 1.19 µM; in the test on HOP-92 NSCLC it was over 25 µM; in the test on UACC-62 melanoma, 1.17 µM; in the test on SNB-75 CNS, 0.591 µM; in the test with K-562 leukemia, 0.497 µM. In addition, the GI50 in the test with UACC-257 melanoma is over 25 µM; in the test on SW-620 colon, 0.911 µM; in the test on M14 melanoma it was 0.698 µM; in the test with T-47D breast it was 1.54 µM. In addition, the TGI with OVCAR-8 ovarian, in the test on NCI/ADR-RES ovarian, with HOP-92 NSCLC, in the test on UACC-62 melanoma, with SNB-75 CNS and in the test with K-562 leukemia was over 25 µM throughout. Besides, the TGI with UACC-257 melanoma, in the test on SW-620 colon, in the test on M14 melanoma and with T-47D breast was over 25 µM in each case.
For the compound `COc1cc2nc(NC3CCC3)nc(NC3CCN(C(C)C)CC3)c2cc1OC`, the GI50 with OVCAR-8 ovarian was 3.97 µM; in the test with NCI/ADR-RES ovarian, 15.6 µM; with HOP-92 NSCLC, 1.46 µM; in the test on UACC-62 melanoma, 1.79 µM; in the test on SNB-75 CNS, 1.41 µM; in the test with K-562 leukemia it was 0.902 µM. Besides, the GI50 is 1.89 µM in the test with UACC-257 melanoma, 2.49 µM in the test on SW-620 colon, 1.88 µM with M14 melanoma and 1.95 µM in the test on T-47D breast. Further, the TGI amounted to 26.2 µM in the test on OVCAR-8 ovarian; 65 µM in the test on NCI/ADR-RES ovarian; 3.64 µM in the test with HOP-92 NSCLC; 3.35 µM in the test with UACC-62 melanoma; 4.4 µM with SNB-75 CNS; 10.2 µM in the test with K-562 leukemia. Also, the TGI is 3.78 µM in the test on UACC-257 melanoma, 7.02 µM with SW-620 colon, 3.46 µM in the test on M14 melanoma and 4.11 µM with T-47D breast.
In the case of `CC(=O)O[C@@H]1[C@H]2O[C@H]2[C@H]2O[C@@]2(COC(=O)c2ccccc2)[C@H]1OC(C)=O`, the TGI with OVCAR-8 ovarian, in the test on NCI/ADR-RES ovarian, in the test with HOP-92 NSCLC, in the test with UACC-62 melanoma, in the test on SNB-75 CNS and with K-562 leukemia was over 100 µM in each case. Also, the TGI with UACC-257 melanoma, in the test with SW-620 colon, in the test on M14 melanoma and in the test on T-47D breast was over 100 µM each time.
Take `CCOc1ccc(-c2nc3ccc(-c4nc5ccc(N6CCN(C)CC6)cc5[nH]4)cc3[nH]2)cc1OCC`: the GI50 in the test on OVCAR-8 ovarian is 2.66 µM; in the test on NCI/ADR-RES ovarian, over 100 µM; in the test on HOP-92 NSCLC, 1.35 µM; in the test with UACC-62 melanoma, 0.643 µM; in the test with SNB-75 CNS, 1.03 µM; in the test on K-562 leukemia, 0.778 µM. Also, the GI50 was 1.33 µM in the test with UACC-257 melanoma, 0.796 µM with SW-620 colon, 0.831 µM in the test on M14 melanoma and 0.946 µM with T-47D breast. The TGI in the test on OVCAR-8 ovarian was 14.5 µM; with NCI/ADR-RES ovarian, over 100 µM; in the test with HOP-92 NSCLC, 8.73 µM; in the test on UACC-62 melanoma, 2.58 µM; in the test on SNB-75 CNS, 2.56 µM; with K-562 leukemia, 9.01 µM. The TGI with UACC-257 melanoma was 4.76 µM; in the test with SW-620 colon, 2.89 µM; in the test on M14 melanoma, 3.84 µM; with T-47D breast, 5.57 µM.
With `CCN(CC)CCN1C(=O)c2cccc3cc(N)cc(c23)C1=O`, the TGI is over 100 µM in the test with OVCAR-8 ovarian; 58.8 µM in the test with NCI/ADR-RES ovarian; over 100 µM in the test on HOP-92 NSCLC; 24.6 µM in the test with UACC-62 melanoma; 37.1 µM in the test on SNB-75 CNS; 44.2 µM with K-562 leukemia. The TGI in the test on UACC-257 melanoma is 25.7 µM; in the test on SW-620 colon, 83.3 µM; in the test on M14 melanoma, 32.1 µM; in the test with T-47D breast, over 100 µM.
